# Source: PMC9230136 (Pharmaceutics, 2022)
# Entries after “also recorded” stand apart in the source; their conditions may differ. Read-outs that look alike come from different tables or passages of the source.
# Columns and labels:
# [1] = tested on: HeLa cells; experiment: ROS production (H2DCFDA); format: cell-based, human; conditions: 10, 50 or 100 nM; 24 h
# Protocol: The mitochondrial potential was evaluated in HeLa cells by flow cytometry using the cell membrane permeable cationic dye 5,5′,6,6′-tetrachloro-1,1′,3,3′-tetraethyl-imidacarbocyanine iodide (JC-1) (Molecular Probes) as described previously. The production of ROS was measured in HeLa cells by flow cytometry using 2′,7′-dichlorodihydrofluorescein diacetate (H2DCFDA) (Molecular Probes) as described previously.
# [2] = tested on: PBL stimulated with PHA; experiment: Cytotoxicity in human PBLs stimulated with PHA; format: cell-based; conditions: 72 h, read-out: IC50 PBLPHA
# Text: (§1) Human PBLs were obtained from healthy donors by separation on a Lymphoprep^TM (Serumwerk Bernburg AG) gradient and were used for the evaluation of the cytotoxic potential of compounds under study in normal human cells. Buffy coats were obtained from the Blood Transfusion Service, Azienda Ospedaliera of Padova and provided at this institution for research purposes without identifier. The samples were not obtained specifically for this study, and for this reason ethical approval was not required. Informed consent was obtained from blood donors according to Italian law no. 219 (21 October 2005). Data were treated by the Blood Transfusion Service according to Italian law on personal data management “Codice in materia di protezione dati personali” (Testo Unico D.L. Giugno 30, 2003 196).
# (§2) After extensive washing with saline solution (BioConcept, Hank’s Buffered Saline Solution), quiescent PBLs were resuspended (1.0 × 10^6 cells/mL) in RPMI-1640 medium supplemented with 10% fetal bovine serum. Cytotoxicity evaluations were conducted also in cultures of proliferating PBLs, stimulated with […] PHA (Irvine Scientific). Both resting and proliferating lymphocytes were seeded in 96-well plates and maintained overnight at 37 °C in a humidified 5% CO2 incubator. Serial (5-fold) dilutions of the tested compounds were added, and viability was determined 72 h later by the resazurin viability assay as described above.
# [3] = tested on: HeLa cells; experiment: Immunofluorescence labeling of microtubules; format: cell-based, human; conditions: 10 nM, 24 h
# Protocol: HeLa cells were seeded at 15,000 cells/well in a NuncTM Lab-Tek 8-well Chamber SlideTM System (Thermo Fisher Scientific) and incubated under cell culture conditions for 24 h. The cells were treated with various concentrations of compounds or solvent (DMSO as control) and incubated for another 24 h.
# After the pharmacological treatment, cells were rinsed with PBS and fixed with 200 μL of 4% paraformaldehyde in PBS for 15 min at room temperature. Cells were then washed twice with PBS 1X before proceeding with permeabilization and protein saturation using a blocking buffer containing 3% bovine serum albumin and 0.1% Triton X-100. Cells were maintained in the blocking buffer for 30 min at room temperature before performing immunostaining of microtubules. Cells were incubated with a murine monoclonal anti-β tubulin antibody (Sigma-Aldrich, Milano, Italy) overnight at 4 °C.
# After three washes with PBS 1X, cells were incubated for 1 h at room temperature in the dark with a secondary antibody conjugated to Alexa FluorTM 488 (Invitrogen, Thermo Fisher Scientific, Waltham, MA, USA)). […]
# Alterations in the microtubule cytoskeleton were documented by fluorescence microscopy using a Zeiss LSM 800 with Airyscan Confocal Spectral microscope (100× magnification) (New York, NY, USA). […]
# [4] = tested on: quiescent PBLs; experiment: Cytotoxicity in human PBLs, resting; format: cell-based; conditions: PBL not stimulated with PHA; 72 h; read-out: IC50 PBLresting
# Text: as §1, §2
# [5] = tested on: Bovine brain tubulin; experiment: Inhibition of tubulin polymerization; format: biochemical
# Protocol: Bovine brain tubulin was purified as described previously. To evaluate the effects of the compounds on tubulin assembly in vitro [35], varying concentrations were preincubated with 10 μM tubulin in 0.8 M monosodium glutamate (pH 6.6) at 30 °C and the reaction mixtures then cooled to 0 °C. After addition of GTP, the mixtures were transferred to 0 °C cuvettes in Beckman Coulter (Brea, CA, USA) DU-7400/DU-7500 recording spectrophotometers equipped with electronic temperature controllers and warmed to 30 °C, and the assembly of tubulin was observed turbidimetrically. […] Inhibition of colchicine binding to tubulin was measured as described before, except that the reaction mixtures contained 0.5 μM tubulin and 5 μM each of [^3H]colchicine and test compound. Only one DEAE-cellulose filter was used per sample, and filtration was by gravity.
# [6] = tested on: HeLa cells in zebrafish Tg(fli1: EGFP) embryos; experiment: Zebrafish xenograft model with HeLa cells; format: in vivo, Danio rerio; conditions: 145 or 290 nM, 24 h, 34 °C; p 0.04 and 0.01
# Protocol: For the transplantation, zebrafish Tg(fli1: EGFP) embryos expressing enhanced green fluorescent protein (EGFP) specifically in vascular endothelial cells, were kept at 28 °C and manually dechorionated. Before microinjections into zebrafish embryos, HeLa cancer cells were stained with VybrantTM DiI Cell-Labeling Solution (Invitrogen, ThermoFisher, Carlsbad, CA, USA) according to the manufacturer’s protocol, in order to visualize and track them inside the larvae. Stained cells (1.0 × 10^6 cells) were suspended in 20 μL of PBS 1X obtaining a final concentration of 50 cells/nL; next, the cellular suspension was loaded into borosilicate glass capillary needles (OD/ID: 1.00/0.75 mm, World Precision Instruments, Sarasota, FL, USA). […]
# Initially (time 0 h pre-treatment) and after one day post-treatment, the tumors were photographed with a Zeiss AxioObserver microscope for live-cell imaging. HeLa cell fluorescence was recorded to investigate reduction, death and migration of tumor cells. Using Fiji ImageJ software, the reduction in cancer cell fluorescence, related to the effectiveness of the anticancer drug treatments, was calculated and plotted. The fluorescence of at least 20 identically treated embryos was compared to vehicle control set to 100%.
smiles,measurement,setting,value
Cc1cc(Nc2ccc(F)cc2)n2nc(NCCCc3ccccc3)nc2n1 [Compound 8q],ROS production,[1],significantly increased ROS production in a dose-dependent manner
same,IC50,[2],> 10000 nM
same,microtubule network organization,[3],"microtubules were disorganized, and the cells developed a spherical morphology"
same,IC50,[4],> 10000 nM
same,"fold more potent than CA-4, tubulin polymerization",[5],about 2 fold
same,IC50,[5]; read-out: IC50 tubulin polymerization,520 nM
same,IC50,"[5]; tubulin at 10 μM, read-out: Tubulin Assembly IC50 ± SD",390 ± 20 nM
same,HeLa tumor cells / fluorescence in zebrafish xenograft,[6],significantly inhibited HeLa cell growth in zebrafish embryos; also recorded: number of circulating tumor cells was significantly reduced; also recorded: fluorescence intensity decreased in a dose-dependent manner; also recorded: reduced HeLa cell growth in xenografts implanted in zebrafish embryos
